Experimental data as given in ChEMBL document CHEMBL1201861, “Genomics of Drug Sensitity in Cancer screening data, Wellcome Trust Sanger Institute”.
pIC50: −log10 of the molar value.

Columns and labels:
Experiment in all cases: cells
Ramos-2G6-4C10 = assay type: functional, cell-based, Homo sapiens; settings: Homo sapiens, Ramos-2G6-4C10;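 note: growth inhibition of the cell line, measured by a cell viability read-out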
Description: SANGER: Inhibition of human Ramos-2G6-4C10 cell growth in a cell viability assay.

NCI-H1355 = assay type: functional, cell-based, Homo sapiens; settings: Homo sapiens, NCI-H1355;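 note: growth inhibition of human NCI-H1355 cells, read out by a cell viability assay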
Description: SANGER: Inhibition of human NCI-H1355 cell growth in a cell viability assay.

OCUB-M = assay type: functional, cell-based; settings: Homo sapiens;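 note: growth inhibition of the cancer cell line, read out through a cell viability assay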
Description: SANGER: Inhibition of human OCUB-M cell growth in a cell viability assay.

HH = assay type: functional, cell-based, Homo sapiens; settings: Homo sapiens, HH
Description: SANGER: Inhibition of human HH cell growth in a cell viability assay.

NCI-H1581 = assay type: functional, cell-based, Homo sapiens; settings: Homo sapiens, NCI-H1581;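 note: cell growth inhibition read out by a viability assay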
Description: SANGER: Inhibition of human NCI-H1581 cell growth in a cell viability assay.

KLE = assay type: functional, cell-based; settings: Homo sapiens;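 note: growth inhibition of human KLE cells, read out with a cell viability assay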
Description: SANGER: Inhibition of human KLE cell growth in a cell viability assay.

IST-MES1 = assay type: functional, cell-based, Homo sapiens; settings: Homo sapiens, IST-MES1;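 note: growth inhibition of IST-MES1 cells, measured with a cell viability assay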
Description: SANGER: Inhibition of human IST-MES1 cell growth in a cell viability assay.

TGBC24TKB = assay type: functional, cell-based; settings: Homo sapiens;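 note: growth inhibition of human TGBC24TKB cells, read out with a cell viability assay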
Description: SANGER: Inhibition of human TGBC24TKB cell growth in a cell viability assay.

BB49-HNC = assay type: functional, cell-based, Homo sapiens; settings: Homo sapiens, BB49-HNC;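 note: cell viability assay read-out, reported as inhibition of BB49-HNC cell growth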
Description: SANGER: Inhibition of human BB49-HNC cell growth in a cell viability assay.

HEL = assay type: functional, cell-based, Homo sapiens; settings: Homo sapiens, HEL;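 note: growth inhibition of HEL cells, read out with a cell viability assay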
Description: SANGER: Inhibition of human HEL cell growth in a cell viability assay.

COLO-668 = assay type: functional, cell-based, Homo sapiens; settings: Homo sapiens, COLO-668
Description: SANGER: Inhibition of human COLO-668 cell growth in a cell viability assay.

TGW = assay type: functional, cell-based, Homo sapiens; settings: Homo sapiens, TGW;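 note: growth inhibition of human TGW cells, read out with a cell viability assay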
Description: SANGER: Inhibition of human TGW cell growth in a cell viability assay.

EW-1 = assay type: functional, cell-based, Homo sapiens; settings: Homo sapiens, EW-1
Description: SANGER: Inhibition of human EW-1 cell growth in a cell viability assay.

NCI-N87 = assay type: functional, cell-based; settings: Homo sapiens;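 note: growth inhibition of human NCI-N87 cells, read out with a cell viability assay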
Description: SANGER: Inhibition of human NCI-N87 cell growth in a cell viability assay.

RPMI-8866 = assay type: functional, cell-based, Homo sapiens; settings: Homo sapiens, RPMI-8866
Description: SANGER: Inhibition of human RPMI-8866 cell growth in a cell viability assay.

NEC8 = assay type: functional, cell-based, Homo sapiens; settings: Homo sapiens, NEC8;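 note: growth inhibition of human NEC8 cells, read out by a cell viability assay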
Description: SANGER: Inhibition of human NEC8 cell growth in a cell viability assay.

C8166 = assay type: functional, cell-based, Homo sapiens; settings: Homo sapiens, C8166;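 note: growth inhibition of human C8166 cells measured by a cell viability assay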
Description: SANGER: Inhibition of human C8166 cell growth in a cell viability assay.

EW-11 = assay type: functional, cell-based, Homo sapiens; settings: Homo sapiens, EW-11;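 note: growth inhibition of human EW-11 cells, measured with a cell viability assay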
Description: SANGER: Inhibition of human EW-11 cell growth in a cell viability assay.

A253 cell line = assay type: functional, cell-based, Homo sapiens; settings: Homo sapiens, A253;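 note: growth inhibition of A253 cells, read out with a cell viability assay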
Description: SANGER: Inhibition of human A253 cell growth in a cell viability assay.

LB996-RCC = assay type: functional, cell-based, Homo sapiens; settings: Homo sapiens, LB996-RCC
Description: SANGER: Inhibition of human LB996-RCC cell growth in a cell viability assay.

MPP-89 = assay type: functional, cell-based, Homo sapiens; settings: Homo sapiens, MPP-89;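 note: growth inhibition of human MPP-89 cells, read out with a cell viability assay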
Description: SANGER: Inhibition of human MPP-89 cell growth in a cell viability assay.

LB1047-RCC = assay type: functional, cell-based, Homo sapiens; settings: Homo sapiens, LB1047-RCC;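 note: inhibition of cell growth, determined with a cell viability assay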
Description: SANGER: Inhibition of human LB1047-RCC cell growth in a cell viability assay.

no-10 = assay type: functional, cell-based, Homo sapiens; settings: Homo sapiens;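 note: growth inhibition of no-10 cells, read out with a cell viability assay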
Description: SANGER: Inhibition of human no-10 cell growth in a cell viability assay.

GAK = assay type: functional, cell-based, Homo sapiens; settings: Homo sapiens, GAK;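 note: cell growth inhibition read out by a cell viability assay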
Description: SANGER: Inhibition of human GAK cell growth in a cell viability assay.

NCI-H1304 = assay type: functional, cell-based, Homo sapiens; settings: Homo sapiens, NCI-H1304;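 note: growth inhibition of the cancer cell line, measured in a cell viability assay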
Description: SANGER: Inhibition of human NCI-H1304 cell growth in a cell viability assay.

MSTO-211H = assay type: functional, cell-based, Homo sapiens; settings: Homo sapiens, MSTO-211H
Description: SANGER: Inhibition of human MSTO-211H cell growth in a cell viability assay.

A498 = assay type: functional, cell-based, Homo sapiens; settings: Homo sapiens, A498;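 note: growth inhibition of human A498 cells, read out with a cell viability assay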
Description: SANGER: Inhibition of human A498 cell growth in a cell viability assay.

NH-12 = assay type: functional, cell-based, Homo sapiens; settings: Homo sapiens, NH-12;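 note: growth inhibition of NH-12 cells, read out with a cell viability assay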
Description: SANGER: Inhibition of human NH-12 cell growth in a cell viability assay.

SK-MEL-1 = assay type: functional, cell-based, Homo sapiens; settings: Homo sapiens, SK-MEL-1;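 note: growth inhibition of human SK-MEL-1 cells, read out by a cell viability assay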
Description: SANGER: Inhibition of human SK-MEL-1 cell growth in a cell viability assay.

RS4-11 = assay type: functional, cell-based, Homo sapiens; settings: Homo sapiens, RS4-11;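 note: growth inhibition of RS4-11 cells, read out by a cell viability assay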
Description: SANGER: Inhibition of human RS4-11 cell growth in a cell viability assay.

CTB-1 = assay type: functional, cell-based, Homo sapiens; settings: Homo sapiens, CTB-1
Description: SANGER: Inhibition of human CTB-1 cell growth in a cell viability assay.

Becker = assay type: functional, cell-based, Homo sapiens; settings: Homo sapiens, Becker;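 note: growth inhibition of Becker cells, read out with a cell viability assay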
Description: SANGER: Inhibition of human Becker cell growth in a cell viability assay.

OAW-42 = assay type: functional, cell-based; settings: Homo sapiens;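 note: growth inhibition of OAW-42 cells, read out with a cell viability assay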
Description: SANGER: Inhibition of human OAW-42 cell growth in a cell viability assay.

BPH-1 = assay type: functional, cell-based; settings: Homo sapiens;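 note: cell viability assay measuring growth inhibition of human BPH-1 cells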
Description: SANGER: Inhibition of human BPH-1 cell growth in a cell viability assay.

RKO = assay type: functional, cell-based, Homo sapiens; settings: Homo sapiens, RKO;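 note: growth inhibition of human RKO cells, read out with a cell viability assay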
Description: SANGER: Inhibition of human RKO cell growth in a cell viability assay.

NCI-H209 = assay type: functional, cell-based, Homo sapiens; settings: Homo sapiens, NCI-H209;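 note: growth inhibition of human NCI-H209 cells, measured by a cell viability assay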
Description: SANGER: Inhibition of human NCI-H209 cell growth in a cell viability assay.

NB5 = assay type: functional, cell-based, Homo sapiens; settings: Homo sapiens, NB5;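 note: growth inhibition of NB5 cells, read out as cell viability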
Description: SANGER: Inhibition of human NB5 cell growth in a cell viability assay.

A388 = assay type: functional, cell-based; settings: Homo sapiens;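 note: growth inhibition of human A388 cells, read out with a cell viability assay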
Description: SANGER: Inhibition of human A388 cell growth in a cell viability assay.

COLO-320-HSR = assay type: functional, cell-based, Homo sapiens; settings: Homo sapiens, COLO-320-HSR;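 note: growth inhibition of COLO-320-HSR cells, determined with a cell viability assay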
Description: SANGER: Inhibition of human COLO-320-HSR cell growth in a cell viability assay.

ALL-PO = assay type: functional, cell-based, Homo sapiens; settings: Homo sapiens, ALL-PO;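 note: growth inhibition of ALL-PO cells, read out by a cell viability assay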
Description: SANGER: Inhibition of human ALL-PO cell growth in a cell viability assay.

MHH-NB-11 = assay type: functional, cell-based, Homo sapiens; settings: Homo sapiens, MHH-NB-11;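 note: growth inhibition of human MHH-NB-11 cells, read out by a cell viability assay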
Description: SANGER: Inhibition of human MHH-NB-11 cell growth in a cell viability assay.

LS-411N = assay type: functional, cell-based, Homo sapiens; settings: Homo sapiens, LS-411N
SHP77 = assay type: functional, cell-based, Homo sapiens, SHP-77; settings: Homo sapiens, SHP77;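 note: growth inhibition of human SHP-77 cells measured by a cell viability assay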
Description: SANGER: Inhibition of human SHP-77 cell growth in a cell viability assay.

DEL = assay type: functional, cell-based, Homo sapiens; settings: Homo sapiens, DEL;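 note: growth inhibition of the human DEL cell line, read out with a cell viability assay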
Description: SANGER: Inhibition of human DEL cell growth in a cell viability assay.

L-428 = assay type: functional, cell-based, Homo sapiens; settings: Homo sapiens, L-428
Description: SANGER: Inhibition of human L-428 cell growth in a cell viability assay.

UACC-257 = assay type: functional, cell-based, Homo sapiens; settings: Homo sapiens, UACC-257
Description: SANGER: Inhibition of human UACC-257 cell growth in a cell viability assay.

NCI-H1299 = assay type: functional, cell-based; settings: Homo sapiens;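 note: growth inhibition of human NCI-H1299 cells, read out by a cell viability assay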
Description: SANGER: Inhibition of human NCI-H1299 cell growth in a cell viability assay.

K562 = assay type: functional, cell-based, Homo sapiens; settings: Homo sapiens, K562
Description: SANGER: Inhibition of human K-562 cell growth in a cell viability assay.

EFO-27 = assay type: functional, cell-based; settings: Homo sapiens;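 note: growth inhibition of EFO-27 cells, read out with a cell viability assay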
Description: SANGER: Inhibition of human EFO-27 cell growth in a cell viability assay.

SW 962 = assay type: functional, cell-based, Homo sapiens; settings: Homo sapiens, SW 962;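 note: growth inhibition of human SW962 cells, read out by a cell viability assay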
Description: SANGER: Inhibition of human SW962 cell growth in a cell viability assay.

ATN-1 = assay type: functional, cell-based, Homo sapiens; settings: Homo sapiens, ATN-1;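 note: growth inhibition of human ATN-1 cells, read out with a cell viability assay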
Description: SANGER: Inhibition of human ATN-1 cell growth in a cell viability assay.

For `O=S(=O)(O)c1ccc2cc(/N=N/c3cc(S(=O)(=O)O)c4cccnc4c3O)ccc2c1`, the pIC50 (Ramos-2G6-4C10) was under 4.80, the pIC50 (NCI-H1355) was under 4.80 and the pIC50 (OCUB-M) was under 4.80. For the same compound, the pIC50 (HH) was under 4.80, the pIC50 (NCI-H1581) was under 4.80 and the pIC50 (KLE) was under 4.80. It also gave a pIC50 (IST-MES1) of under 4.80, a pIC50 (TGBC24TKB) of under 4.80 and a pIC50 (BB49-HNC) of under 4.80. The pIC50 (HEL) was under 4.80, the pIC50 (COLO-668) was under 4.80 and the pIC50 (TGW) was under 4.80. The pIC50 (EW-1) was under 4.80, the pIC50 (NCI-N87) was under 4.80 and the pIC50 (RPMI-8866) was under 4.80. It also gave a pIC50 (NEC8) of under 4.80, a pIC50 (C8166) of under 4.80 and a pIC50 (EW-11) of under 4.80. The pIC50 (A253 cell line) was under 4.80, the pIC50 (LB996-RCC) was under 4.80 and the pIC50 (MPP-89) was under 4.80. It also gave a pIC50 (LB1047-RCC) of under 4.80, a pIC50 (no-10) of under 4.80 and a pIC50 (GAK) of under 4.80. The pIC50 (NCI-H1304) was under 4.80, the pIC50 (MSTO-211H) was under 4.80 and the pIC50 (A498) was under 4.80. It also gave a pIC50 (NH-12) of under 4.80, a pIC50 (SK-MEL-1) of under 4.80 and a pIC50 (RS4-11) of under 4.80. For the same compound, the pIC50 (CTB-1) was under 4.80, the pIC50 (Becker) was under 4.80 and the pIC50 (OAW-42) was under 4.80. The pIC50 (BPH-1) was under 4.80, the pIC50 (RKO) was under 4.80 and the pIC50 (NCI-H209) was under 4.80. For the same compound, the pIC50 (NB5) was under 4.80, the pIC50 (A388) was under 4.80 and the pIC50 (COLO-320-HSR) was under 4.80. It also gave a pIC50 (ALL-PO) of under 4.80, a pIC50 (MHH-NB-11) of under 4.80 and a pIC50 (LS-411N) of under 4.80. For the same compound, the pIC50 (SHP77) was under 4.80, the pIC50 (DEL) was under 4.80 and the pIC50 (L-428) was under 4.80. It also gave a pIC50 (UACC-257) of under 4.80, a pIC50 (NCI-H1299) of under 4.80 and a pIC50 (K562) of under 4.80. It also gave a pIC50 (EFO-27) of under 4.80, a pIC50 (SW 962) of under 4.80 and a pIC50 (ATN-1) of under 4.80.
For `O=C(NCCCNc1nc(Nc2cccc(NC(=O)N3CCCC3)c2)ncc1I)c1cccs1` [BX-795], the pIC50 (Ramos-2G6-4C10) was 5.65, the pIC50 (NCI-H1355) was under 5.30 and the pIC50 (OCUB-M) was under 5.30. For the same compound, the pIC50 (HH) was 5.33, the pIC50 (NCI-H1581) was under 5.30 and the pIC50 (KLE) was under 5.30. The pIC50 (IST-MES1) was under 5.30, the pIC50 (TGBC24TKB) was under 5.30 and the pIC50 (BB49-HNC) was under 5.30. The pIC50 (HEL) was under 5.30, the pIC50 (COLO-668) was under 5.30 and the pIC50 (TGW) was 5.34. It also gave a pIC50 (EW-1) of under 5.30, a pIC50 (NCI-N87) of under 5.30 and a pIC50 (RPMI-8866) of under 5.30. The pIC50 (NEC8) was under 5.30, the pIC50 (C8166) was under 5.30 and the pIC50 (EW-11) was under 5.30. The pIC50 (A253 cell line) was 5.38, the pIC50 (LB996-RCC) was 5.35 and the pIC50 (MPP-89) was under 5.30. For the same compound, the pIC50 (LB1047-RCC) was 5.89, the pIC50 (no-10) was under 5.30 and the pIC50 (GAK) was under 5.30. For the same compound, the pIC50 (NCI-H1304) was under 5.30, the pIC50 (MSTO-211H) was under 5.30 and the pIC50 (A498) was 5.34. It also gave a pIC50 (NH-12) of 5.55, a pIC50 (SK-MEL-1) of under 5.30 and a pIC50 (RS4-11) of 6.14. For the same compound, the pIC50 (CTB-1) was 5.62, the pIC50 (Becker) was 5.52 and the pIC50 (OAW-42) was 5.44. It also gave a pIC50 (BPH-1) of 5.50, a pIC50 (RKO) of under 5.30 and a pIC50 (NB5) of 5.53. For the same compound, the pIC50 (A388) was under 5.30, the pIC50 (COLO-320-HSR) was under 5.30 and the pIC50 (ALL-PO) was 5.97. For the same compound, the pIC50 (MHH-NB-11) was under 5.30, the pIC50 (LS-411N) was under 5.30 and the pIC50 (SHP77) was under 5.30. It also gave a pIC50 (DEL) of 5.56, a pIC50 (L-428) of under 5.30 and a pIC50 (UACC-257) of under 5.30. For the same compound, the pIC50 (NCI-H1299) was under 5.30, the pIC50 (K562) was under 5.30 and the pIC50 (EFO-27) was under 5.30. It also gave a pIC50 (SW 962) of 5.63 and a pIC50 (ATN-1) of 5.86.
Work on `CS(=O)(=O)N1CCN(Cc2cc3nc(-c4cccc5[nH]ncc45)nc(N4CCOCC4)c3s2)CC1` [PICTILISIB] yielded a pIC50 (Ramos-2G6-4C10) of 5.79, a pIC50 (NCI-H1355) of under 5.40 and a pIC50 (OCUB-M) of under 5.40. It also gave a pIC50 (HH) of 6.95, a pIC50 (NCI-H1581) of under 5.40 and a pIC50 (KLE) of under 5.40. The pIC50 (IST-MES1) was under 5.40, the pIC50 (TGBC24TKB) was 5.97 and the pIC50 (BB49-HNC) was 5.72. The pIC50 (HEL) was under 5.40, the pIC50 (COLO-668) was under 5.40 and the pIC50 (TGW) was under 5.40. For the same compound, the pIC50 (EW-1) was under 5.40, the pIC50 (NCI-N87) was 5.67 and the pIC50 (RPMI-8866) was under 5.40. For the same compound, the pIC50 (NEC8) was 6.18, the pIC50 (C8166) was under 5.40 and the pIC50 (EW-11) was under 5.40. The pIC50 (A253 cell line) was under 5.40, the pIC50 (LB996-RCC) was 5.91 and the pIC50 (MPP-89) was under 5.40. The pIC50 (LB1047-RCC) was 6.28, the pIC50 (no-10) was under 5.40 and the pIC50 (GAK) was under 5.40. For the same compound, the pIC50 (NCI-H1304) was under 5.40, the pIC50 (MSTO-211H) was under 5.40 and the pIC50 (A498) was 5.88. For the same compound, the pIC50 (NH-12) was 5.69, the pIC50 (SK-MEL-1) was 5.88 and the pIC50 (RS4-11) was 6.58. The pIC50 (CTB-1) was 5.94, the pIC50 (Becker) was 5.50 and the pIC50 (OAW-42) was 6.06. The pIC50 (BPH-1) was 6.50, the pIC50 (RKO) was under 5.40 and the pIC50 (NB5) was 6.02. It also gave a pIC50 (A388) of under 5.40, a pIC50 (COLO-320-HSR) of under 5.40 and a pIC50 (ALL-PO) of under 5.40. The pIC50 (MHH-NB-11) was under 5.40, the pIC50 (LS-411N) was under 5.40 and the pIC50 (SHP77) was under 5.40. The pIC50 (DEL) was under 5.40, the pIC50 (L-428) was under 5.40 and the pIC50 (UACC-257) was under 5.40. For the same compound, the pIC50 (NCI-H1299) was under 5.40, the pIC50 (K562) was under 5.40 and the pIC50 (EFO-27) was under 5.40. For the same compound, the pIC50 (SW 962) was 5.43 and the pIC50 (ATN-1) was under 5.40.
